Test results reported in the supplement of paper PMC8960247.
± gives the standard error.

Experiments:
621-102 (TSC2-deficient) = experiment: relative viability vs DMSO; higher = less cytotoxic; conditions: serum: 10% FBS, 72 h
621-103 (TSC2-rescued) = experiment: as above; conditions: serum: 10% FBS, 72 h
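Further: immortalized renal angiomyolipoma cells stably carrying empty vector or TSC2, dosed in 384-well plates in DMEM, viability normalized to vehicle-treated wells within each plate.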

Compound	relative viability (621-102 (TSC2-deficient); 0.0001 µM) [%]	relative viability (621-102 (TSC2-deficient); 0.001 µM) [%]	relative viability (621-102 (TSC2-deficient); 0.01 µM) [%]	relative viability (621-102 (TSC2-deficient); 0.1 µM) [%]	relative viability (621-102 (TSC2-deficient); 1 µM) [%]	relative viability (621-102 (TSC2-deficient); 10 µM) [%]	relative viability (621-103 (TSC2-rescued); 0.0001 µM) [%]	relative viability (621-103 (TSC2-rescued); 0.001 µM) [%]	relative viability (621-103 (TSC2-rescued); 0.01 µM) [%]	relative viability (621-103 (TSC2-rescued); 0.1 µM) [%]	relative viability (621-103 (TSC2-rescued); 1 µM) [%]	relative viability (621-103 (TSC2-rescued); 10 µM) [%]
O=C1N=C(O)NC1(c1ccccc1)c1ccccc1 [Phenytoin sodium]	121 ± 4.2	90.6 ± 8.7	94.9 ± 4.7	86.6 ± 2.5	92 ± 6	100.3 ± 0.98	105 ± 2.1	105.8 ± 0.97	100 ± 2.4	101 ± 2.9	94.54 ± 0.49	101.8 ± 0.76
CCOc1nc2cccc(C(=O)OC(C)OC(=O)OC3CCCCC3)c2n1Cc1ccc(-c2ccccc2-c2nn[nH]n2)cc1 (stereo not drawn) [Candesartan cilexetil]	106.1 ± 0.3	97.7 ± 2.1	102 ± 2.7	106 ± 1.2	96.9 ± 2.4	97.55 ± 0.87	96.526 ± 0.053	95.8 ± 3.5	94.03 ± 0.16	97.8 ± 1.6	99.8 ± 5.4	94.55 ± 0.33
C#Cc1cccc(Nc2ncnc3cc(OCCOC)c(OCCO)cc23)c1 [OSI-420]	118 ± 6.5	106.9 ± 0.52	103 ± 0.19	95.9 ± 4	115 ± 2.9	95.8 ± 1.9	102.2 ± 0.8	101.12 ± 0.0035	106.2 ± 0.97	100 ± 1.9	101.78 ± 0.034	74.8 ± 1.7
CS(=O)(=O)CCNCc1ccc(-c2ccc3ncnc(Nc4ccc(OCc5cccc(F)c5)c(Cl)c4)c3c2)o1 [Lapatinib Ditosylate]	102.2 ± 0.43	100 ± 1.8	110 ± 2.3	101.41 ± 0.072	103 ± 2.5	82.9 ± 3.4	97.35 ± 0.2	96.4 ± 3.8	104 ± 1.5	101 ± 3.3	99.1 ± 4	48.9 ± 1.6
O=C(NOCC(O)CO)c1cc(Br)c(F)c(F)c1Nc1ccc(I)cc1F (stereo not drawn)	105 ± 4.9	99.7 ± 2.8	105.5 ± 0.56	106 ± 1.1	100 ± 1.4	93.7 ± 1.3	96.8 ± 0.31	95 ± 3	98.9 ± 1.2	93.54 ± 0.87	93.44 ± 0.33	74.3 ± 5.1
COc1cc2c(N3CCN(C(=O)Nc4ccc(OC(C)C)cc4)CC3)ncnc2cc1OCCCN1CCCCC1 [Tandutinib (MLN518)]	107 ± 3.1	97.9 ± 4.1	99.7 ± 0.23	96.6 ± 3	98.2 ± 3.4	80 ± 2.4	99.4 ± 1.1	99.87 ± 0.96	101 ± 2.1	101 ± 1.9	99.31 ± 0.29	83.4 ± 1.2
C[C@@H]1CCN(C(=O)CC#N)C[C@@H]1N(C)c1ncnc2[nH]ccc12	113 ± 2.6	98.5 ± 1.1	106 ± 4.8	109 ± 1.1	98.6 ± 2.7	104 ± 1.3	104 ± 4.3	100 ± 2.5	99.134 ± 0.051	102 ± 2.4	107 ± 0.27	96.7 ± 1.1
CC(C)n1nc(-c2cc3cc(O)ccc3[nH]2)c2c(N)ncnc21 [PP242]	93.3 ± 6.1	95.7 ± 2.2	103 ± 2	101.44 ± 0.046	46 ± 1.6	16.86 ± 0.071	107 ± 6.5	107.2 ± 0.94	103 ± 2.7	80.1 ± 1.7	38 ± 0.41	23.13 ± 0.076
C[S+]([O-])c1ccc(-c2nc(-c3ccc(F)cc3)c(-c3ccncc3)[nH]2)cc1 (stereo not drawn)	112 ± 5	108.1 ± 0.69	98.1 ± 2.8	102 ± 1.2	111 ± 2	110 ± 2.8	101.3 ± 0.64	98.42 ± 0.75	98.6 ± 1.3	99.1 ± 2	100 ± 1.8	98.1 ± 1.3
C[C@]12CCC(=O)C(O)=C1CC[C@@H]1[C@@H]2CC[C@]2(C)C(=O)CC[C@@H]12 [Formestane]	105 ± 1.1	113 ± 3.5	120 ± 4.2	94.73 ± 0.3	98.9 ± 1.5	109 ± 0.99	105 ± 4	102.8 ± 0.63	105.2 ± 0.81	102 ± 1.2	101 ± 3.9	102.4 ± 0.89
COC[C@@H](c1ccc(C(F)(F)F)cc1)N1CCN(C2(C)CCN(C(=O)c3c(C)ncnc3C)CC2)C[C@@H]1C [Vicriviroc Malate]	100.4 ± 0.12	106 ± 2.8	113 ± 2.9	108 ± 3.2	100 ± 1.5	100.24 ± 0.061	102 ± 3.4	99.95 ± 0.79	101 ± 2.1	99.04 ± 0.74	96.3 ± 1.4	97.62 ± 0.55
COc1cc2ncnc(Nc3cccc(Br)c3)c2cc1OC	96.7 ± 1	107 ± 3.8	115 ± 5.2	105.5 ± 0.2	107.6 ± 0.58	75.6 ± 6.2	102 ± 1.5	102 ± 1.7	103.2 ± 1	98.4 ± 2.3	101 ± 1.6	92.1 ± 4.8
CC(=O)SCC(Cc1ccccc1)C(=O)NCC(=O)OCc1ccccc1 (stereo not drawn) [Racecadotril]	134 ± 1.7	120 ± 3.8	122 ± 1.8	107 ± 3.7	114 ± 5.8	113 ± 1.3	104 ± 4.4	95.5 ± 2	101 ± 4.2	101 ± 3.7	106 ± 1.2	99.3 ± 2.2
O=c1oc2cc(O)ccc2s1 [Tioxolone]	103 ± 7.6	105.7 ± 0.97	105 ± 4	94.8 ± 1.4	104 ± 2.6	99.31 ± 0.92	71.1 ± 7.9	80 ± 6.3	75.42 ± 0.21	80.9 ± 4.5	71.5 ± 8.5	60.9 ± 5
O=C(O)c1ccc2c(c1)nc(Nc1cccc(Cl)c1)c1ccncc12 [CX-4945]	95 ± 3.3	93.1 ± 1.6	102 ± 2.2	103.8 ± 0.2	101 ± 2.9	80.4 ± 0.94	109 ± 5.8	106.3 ± 0.77	111 ± 7.9	106 ± 3	104 ± 3.2	72.54 ± 0.24
Cc1cnc(Nc2ccc(N3CCN(C)CC3)cc2)nc1Nc1cccc(S(=O)(=O)NC(C)(C)C)c1	116.1 ± 0.23	120 ± 3.8	109 ± 6.5	107 ± 2.4	80.4 ± 2.8	3.65 ± 0.42	102 ± 2.6	98.71 ± 0.22	95.5 ± 4.1	97.4 ± 1.1	51 ± 1.3	1.33 ± 0.2
NCCCC(O)(P(=O)(O)O)P(=O)(O)O [Alendronate Sodium]	99.4 ± 1.2	103 ± 1.3	103 ± 2.7	99.1 ± 5.1	99 ± 3.1	104.6 ± 0.43	98.7 ± 3.1	102 ± 1.5	101 ± 4.5	105.54 ± 0.079	104 ± 3.5	105 ± 2.9
CCO[C@@H]1OC(=O)C[C@@H]1NC(=O)[C@@H]1CCCN1C(=O)[C@@H](NC(=O)c1ccc(N)c(Cl)c1)C(C)(C)C [VX-765]	109 ± 0.74	105 ± 4.9	116 ± 3.2	108 ± 4.6	101 ± 4	106 ± 1.8	111 ± 2.9	95.9 ± 4.8	101 ± 4.6	105 ± 6.8	101.8 ± 0.69	102 ± 4.9
O=C(NOC[C@H](O)CO)c1ccc(F)c(F)c1Nc1ccc(I)cc1F	98.6 ± 2.5	104 ± 4.5	106.7 ± 0.59	106.2 ± 0.49	98.6 ± 1	52.32 ± 0.36	96.2 ± 1.3	98.8 ± 2.7	100.2 ± 0.66	94.5 ± 0.99	87.31 ± 0.23	64.6 ± 1.8
